According to the supplement of paper PMC12137928:
Where a name gives a salt, the structure may show the parent alone.

System: HCT116
Conditions: 72 h
Method in brief: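 In 1536-well plates, 250 HCT116 cells per well were seeded and left for 5 h to attach. Luminescence from CellTiter-Glo was set against vehicle (0%) and positive control (-100%), and pattern correction was applied. IC50 and maximal efficacy come from four-parameter Hill fitting.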

Structure (SMILES) | IC50 cell viability (ICRF193 0 nM) [µM] | IC50 cell viability (ICRF193 200 nM) [µM]
COC(=O)N[C@H](C(=O)N[C@@H](Cc1ccccc1)[C@@H](O)CN(Cc1ccc(-c2ccccn2)cc1)NC(=O)[C@@H](NC(=O)OC)C(C)(C)C)C(C)(C)C [Atazanavir] | > 45.8 | > 45.8
COc1ccc(CC2c3cc(OC)c(OC)cc3CC[N+]2(C)CCC(=O)OCCCCCOC(=O)CC[N+]2(C)CCc3cc(OC)c(OC)cc3C2Cc2ccc(OC)c(OC)c2)cc1OC (stereo not given) [Atracurium besylate] | > 45.8 | > 45.8
COc1ccc([C@@H]2CC(=O)c3c(O)cc(O[C@@H]4O[C@H](CO[C@@H]5O[C@@H](C)[C@H](O)[C@@H](O)[C@H]5O)[C@@H](O)[C@H](O)[C@H]4O)cc3O2)cc1O [Aurantiamarin (Methyl Hesperidin)] | > 45.8 | > 45.8
COc1ccc(C(=O)CC(=O)c2ccc(C(C)(C)C)cc2)cc1 [Avobenzone] | > 45.8 | > 45.8
CN1CCC(=C2c3ccccc3CCc3cccnc32)CC1 [Azatadine] | > 45.8 | > 45.8
CCOc1nc2cccc(C(=O)O)c2n1Cc1ccc(-c2ccccc2-c2noc(=O)[nH]2)cc1 [Azilsartan (TAK-536)] | > 45.8 | > 45.8
CCOc1nc2cccc(C(=O)OCc3oc(=O)oc3C)c2n1Cc1ccc(-c2ccccc2-c2noc(=O)[nH]2)cc1 [Azilsartan Medoxomil] | > 45.8 | > 45.8
CCCCC(CC)COc1ccc(-c2nc(-c3ccc(OC)cc3)nc(-c3ccc(OCC(CC)CCCC)cc3O)n2)c(O)c1 (stereo not given) [BEMOTRIZINOL] | > 45.8 | > 45.8
O=C(OCc1ccccc1)c1cccnc1 [BENZYL NICOTINATE] | > 45.8 | > 45.8
CCCCCCOC(=O)NC(=N)c1ccc(NCc2nc3cc(C(=O)N(CCC(=O)OCC)c4ccccn4)ccc3n2C)cc1 [BIBR-1048] | > 45.8 | > 45.8
CC(O)(CS(=O)(=O)c1ccc(F)cc1)C(=O)Nc1ccc(C#N)c(C(F)(F)F)c1 (stereo not given) [BICALUTAMIDE] | > 45.8 | > 45.8
CC(C)(C)NCC(O)COc1ccccc1C#N (stereo not given) [BUNITROLOL] | > 45.8 | > 45.8
CC[C@H](C)[C@H](N)C1=N[C@H](C(=O)N[C@@H](CC(C)C)C(=O)N[C@H](CCC(=O)O)C(=O)N[C@H](C(=O)N[C@H]2CCCCNC(=O)[C@H](CC(N)=O)NC(=O)[C@@H](CC(=O)O)NC(=O)[C@H](Cc3cnc[nH]3)NC(=O)[C@@H](Cc3ccccc3)NC(=O)[C@H]([C@@H](C)CC)NC(=O)[C@@H](CCCN)NC2=O)[C@@H](C)CC)CS1 [Bacitracin] | > 45.8 | > 45.8
NCC(CC(=O)O)c1ccc(Cl)cc1 (stereo not given) [Baclofen] | > 45.8 | > 45.8
O=C(O)CCNC(=O)c1ccc(/N=N/c2ccc(O)c(C(=O)O)c2)cc1 [Balsalazide disodium] | > 45.8 | > 45.8
CN(C)C(=O)Oc1cc(OC(=O)N(C)C)cc(C(O)CNC(C)(C)C)c1 (stereo not given) [Bambuterol hydrochloride] | > 45.8 | > 45.8
CCCCNCC(O)c1ccc(O)cc1 (stereo not given) [Bamethan] | > 45.8 | > 45.8
COc1nc2ccc(Br)cc2cc1[C@@H](c1ccccc1)[C@@](O)(CCN(C)C)c1cccc2ccccc12 [Bedaquiline (TMC-207)] | > 45.8 | > 45.8
CC(=O)c1cc2cccc(OCC(O)CNC(C)C)c2o1 (stereo not given) [Befunolol] | > 45.8 | > 45.8
CCC1(C)CC(=O)NC(=O)C1 [Bemegride] | > 45.8 | > 45.8

Structure (SMILES) | IC50 cell viability (ICRF193 0 nM) [µM] | IC50 cell viability (ICRF193 200 nM) [µM]
CN(C)CCCOC1(Cc2ccccc2)CCCCCC1 [Bencyclane] | > 45.8 | > 45.8
Cn1c(CCCC(=O)O)nc2cc(N(CCCl)CCCl)ccc21 [Bendamustine] | > 45.8 | > 45.8
C/C(=C(\CCOP(=O)(O)O)SC(=O)c1ccccc1)N(C=O)Cc1cnc(C)nc1N [Benfotiamine] | > 45.8 | > 45.8
CCCCOc1cc(C(=O)OCCN(CC)CC)ccc1N [Benoxinate hydrochloride] | > 45.8 | > 45.8
O=C(CCCN1CCC(n2c(=O)[nH]c3ccccc32)CC1)c1ccc(F)cc1 [Benperidol] | > 45.8 | > 45.8
NC(CO)C(=O)NNCc1ccc(O)c(O)c1O (stereo not given) [Benserazide] | > 45.8 | > 45.8
O=C(O)c1ccc(NC(=O)[C@H](Cc2ccc(O)cc2)NC(=O)c2ccccc2)cc1 [Bentiromide sodium] | > 45.8 | > 45.8
CC[N+](C)(CC)CCOC(=O)C(O)(c1ccccc1)c1ccccc1 [Benzactyzine methobromide] | > 45.8 | > 45.8
CCc1oc2ccccc2c1C(=O)c1cc(Br)c(O)c(Br)c1 [Benzbromarone] | > 45.8 | > 45.8
O=C(Cn1ccnc1[N+](=O)[O-])NCc1ccccc1 [Benznidazole] | > 45.8 | > 45.8
CCOC(=O)c1ccc(N)cc1 [Benzocaine] | > 45.8 | > 45.8
O=C(c1ccccc1)C(O)c1ccccc1 (stereo not given) [Benzoin] | > 45.8 | > 45.8
CCCCNc1ccc(C(=O)OCCOCCOCCOCCOCCOCCOCCOCCOCCOC)cc1 [Benzonatate] | > 45.8 | > 45.8
c1ccc2scnc2c1 [Benzothiazole] | > 45.8 | > 45.8
O=C(OOC(=O)c1ccccc1)c1ccccc1 [Benzoyl peroxide] | > 45.8 | > 45.8
CN1[C@H]2CC[C@@H]1[C@@H](C(=O)O)[C@@H](OC(=O)c1ccccc1)C2 [Benzoylecgonine] | > 45.8 | > 45.8
CN(C)CCCOc1nn(Cc2ccccc2)c2ccccc12 [Benzydamine hydrochloride] | > 45.8 | > 45.8
OCc1ccccc1 [Benzyl alcohol] | > 45.8 | > 45.8
O=C(OCc1ccccc1)c1ccccc1 [Benzyl benzoate] | > 45.8 | > 45.8
O=C(/C=C/c1ccccc1)OCc1ccccc1 [Benzyl cinnamate] | > 45.8 | > 45.8

Second part, the molecule after the results:

IC50 cell viability (ICRF193 0 nM) [µM] | IC50 cell viability (ICRF193 200 nM) [µM] | Structure (SMILES)
> 45.8 | > 45.8 | CNC(=O)C[C@@H](N)C(=O)N[C@@H](C(=O)N[C@@H]1C(=O)N2[C@@H]1SC(C)(C)[C@@H]2C(=O)O)c1ccc(O)cc1 [Aspoxicillin]
> 45.8 | > 45.8 | CO[C@H]1[C@@H](O)[C@H](N)[C@@H](O[C@H]2O[C@H]([C@H](C)N)CC[C@H]2N)[C@H](O)[C@@H]1N(C)C(=O)CN [Astromicin]
> 45.8 | > 45.8 | CCOc1ccc(C[C@H]2NC(=O)CCSSC[C@@H](C(=O)N3CCC[C@H]3C(=O)N[C@@H](CCCN)C(=O)NCC(N)=O)NC(=O)[C@H](CC(N)=O)NC(=O)[C@H]([C@@H](C)O)NC(=O)[C@H]([C@@H](C)CC)NC2=O)cc1 [Atosiban]
> 45.8 | > 45.8 | COc1ccc(CNc2nc(N3CCC[C@H]3CO)ncc2C(=O)NCc2ncccn2)cc1Cl [Avanafil]
> 45.8 | > 45.8 | NC(=O)[C@@H]1CC[C@@H]2CN1C(=O)N2OS(=O)(=O)O [Avibactam sodium]
> 45.8 | > 45.8 | CCCC1C(=O)N2C(N(C)C)=Nc3ccc(C)cc3N2C1=O (stereo not given) [Azapropazone]
> 45.8 | > 45.8 | NS(=O)(=O)c1cc(-c2nnn[nH]2)c(NCc2cccs2)cc1Cl [Azosemide]
> 45.8 | > 45.8 | C[C@H]1[C@H](NC(=O)/C(=N\OC(C)(C)C(=O)O)c2csc(N)n2)C(=O)N1S(=O)(=O)O [Aztreonam]
> 45.8 | > 45.8 | O=C(OCCO)c1ccccc1O [BETA-HYDROXYETHYL SALICYLATE]
> 45.8 | > 45.8 | CCC(=O)OCC(=O)[C@@]1(OC(=O)CC)[C@@H](C)C[C@H]2[C@@H]3CCC4=CC(=O)C=C[C@]4(C)[C@@]3(F)[C@@H](O)C[C@@]21C [BETAMETHASONE 17,21-DIPROPIONATE]
> 45.8 | > 45.8 | CC1(C)C2CCC1(C)C(O)C2 (stereo not given) [BORNEOL]
> 45.8 | > 45.8 | CC(=O)OC1CC2CCC1(C)C2(C)C (stereo not given) [BORNYL ACETATE]
> 45.8 | > 45.8 | CCOC(=O)OC(C)OC(=O)[C@@H]1N2C(=O)[C@@H](NC(=O)[C@H](N)c3ccccc3)[C@H]2SC1(C)C (stereo not given in full) [Bacampicillin hydrochloride]
> 45.8 | > 45.8 | CNC1CCCN(c2c(F)cc3c(=O)c(C(=O)O)cn(C4CC4)c3c2OC)C1 (stereo not given) [Balofloxacin]
> 45.8 | > 45.8 | CCOC(=O)[C@H](CCc1ccccc1)N[C@H]1CCc2ccccc2N(CC(=O)O)C1=O [Benazepril]
> 45.8 | > 45.8 | O=C(O)COc1nn(Cc2ccccc2)c2ccccc12 [Bendazac sodium]
> 45.8 | > 45.8 | CC(=O)Nc1ccc(OC(=O)c2ccccc2OC(C)=O)cc1 [Benorylate]
> 45.8 | > 45.8 | O=S(=O)(O)c1ccccc1 [Benzene sulfonic acid]
> 45.8 | > 45.8 | CCN(CC)C(=O)C1CN2CCc3cc(OC)c(OC)cc3C2CC1OC(C)=O (stereo not given) [Benzquinamide]
> 45.8 | > 45.8 | CN1[C@@H]2CC[C@H]1C[C@@H](OC(c1ccccc1)c1ccccc1)C2 [Benztropine mesylate]
